Drawing on ChEMBL document CHEMBL5385961, “In vitro and in vivo evaluation of novel chromeno[2,3-d]pyrimidinones as therapeutic agents for triple negative breast cancer” (RSC Med Chem, 2024), this text covers viability for 15 compounds.

Common to all, as to type: functional
Settings in all cases: read-out: Activity

Test [1] concerns MDA-MB-231. Kind of test: Cytotoxicity against human MDA-MB-231 cells assessed as cell viability at 10 uM incubated for 72 hrs by SRB assay relative to control.
Test [2] concerns MDA-MB-231. Briefly: Cytotoxicity against human MDA-MB-231 cells assessed as cell viability at 30 uM incubated for 72 hrs by SRB assay relative to control. Background: The SRB assay estimates cell density from bound dye.
Test [3] has as its system Hs-578T. Kind of test: Cytotoxicity against human Hs-578T cells assessed as cell viability at 30 uM incubated for 72 hrs by SRB assay relative to control.
In test [4] the test system is Hs-578T. Briefly: Cytotoxicity against human Hs-578T cells assessed as cell viability at 10 uM incubated for 72 hrs by SRB assay relative to control.
Test [5] deals with MCF7. Briefly: Cytotoxicity against human MCF7 cells assessed as cell viability at 30 uM incubated for 72 hrs by SRB assay relative to control.
In test [6] the test system is MCF7. Briefly: Cytotoxicity against human MCF7 cells assessed as cell viability at 10 uM incubated for 72 hrs by SRB assay relative to control.

As to `COc1cccc2c1Oc1nc(-c3cccc(Br)c3)[nH]c(=O)c1C2`, the values for the viability at 10 µM in the test with MDA-MB-231 [1], with Hs-578T [4] and in the test with MCF7 [6] were 92%, 66.8% and 78.4%, respectively. Further, the figures for the viability at 30 µM with MDA-MB-231 [2], with Hs-578T [3] and in the test with MCF7 [5] were 80.8%, 40.6% and 52.4%, respectively.

On to `COc1ccc2c(c1)Cc1c(nc(-c3ccccc3OC)[nH]c1=O)O2`, for which the viability at 10 µM in the test with MDA-MB-231 [1] stood at 85%; with Hs-578T [4] it was 87.5%; with MCF7 [6], 90.6%. The viability at 30 µM in the test on MDA-MB-231 [2] came to 65.9%; in the test with Hs-578T [3], 65.6%; in the test on MCF7 [5] it was 70.4%.

`COc1cccc2c1Oc1nc(-c3ccccc3Cl)[nH]c(=O)c1C2`: the viability at 10 µM in the test with MDA-MB-231 [1] stood at 92.5%; with Hs-578T [4], 81.7%; with MCF7 [6] it was 74.7%. Besides, the viability at 30 µM came to 90.1% in the test on MDA-MB-231 [2], 72.5% in the test with Hs-578T [3] and 58.2% in the test on MCF7 [5].

Take `COc1cc(OC)c(C2N=C3Oc4ccc(Br)cc4C=C3C(=O)N2)c(OC)c1` (stereo not given): the viability at 10 µM with MDA-MB-231 [1] turned out to be 80.6%; in the test on Hs-578T [4], 95.2%; in the test with MCF7 [6] it was 90.6%. The viability at 30 µM in the test with MDA-MB-231 [2] was 64.4%; with Hs-578T [3], 68.6%; in the test with MCF7 [5], 76.2%.

Consider `COc1cccc2c1Oc1nc(-c3cccc(Cl)c3)[nH]c(=O)c1C2`, for which the viability at 10 µM in the test on MDA-MB-231 [1] was 80.8%; with Hs-578T [4] it was 72%; with MCF7 [6], 69.8%. The viability at 30 µM in the test with MDA-MB-231 [2] turned out to be 76.9%; in the test on Hs-578T [3], 49.9%; in the test on MCF7 [5] it was 40.4%.

In the case of `COc1ccc2c(c1)Cc1c(nc(-c3cccc(Cl)c3)[nH]c1=O)O2`, the viability at 10 µM is 80.7% in the test on MDA-MB-231 [1], 76% with Hs-578T [4] and 79.3% with MCF7 [6]. Further, the viability at 30 µM was found to be 44.2% in the test with MDA-MB-231 [2], 74.7% in the test with Hs-578T [3] and 45.8% in the test with MCF7 [5].

As to `COc1cccc(-c2nc3c(c(=O)[nH]2)Cc2cc(OC)ccc2O3)c1`, the viability at 10 µM in the test on MDA-MB-231 [1] was 69.3%; in the test on Hs-578T [4], 88%; in the test on MCF7 [6] it was 73.1%. Further, the viability at 30 µM is 41.2% in the test with MDA-MB-231 [2], 77% in the test with Hs-578T [3] and 49.8% in the test on MCF7 [5].

`COc1cccc2c1Oc1nc(-c3ccc(C)cc3)[nH]c(=O)c1C2`: the viability at 10 µM in the test on MDA-MB-231 [1] is 99.2%; in the test with Hs-578T [4], 86.8%; with MCF7 [6] it was 78.5%. Further, the viability at 30 µM is 91.1% with MDA-MB-231 [2], 63.3% in the test on Hs-578T [3] and 77.2% with MCF7 [5].

Turning to `COc1ccc(OC)c(-c2nc3c(c(=O)[nH]2)Cc2cc(Cl)ccc2O3)c1`, the figures for the viability at 10 µM in the test with MDA-MB-231 [1], in the test on Hs-578T [4] and in the test on MCF7 [6] were 91%, 91.7% and 69.2%, respectively. Moreover, the viability at 30 µM was determined as 78% with MDA-MB-231 [2], 92% with Hs-578T [3] and 62.6% in the test on MCF7 [5].

For `COc1ccccc1-c1nc2c(c(=O)[nH]1)Cc1cc(Cl)ccc1O2`, the viability at 10 µM in the test with MDA-MB-231 [1] came to 88.2%; in the test with Hs-578T [4] it was 78.4%; with MCF7 [6], 80%. For the same compound, the viability at 30 µM in the test with MDA-MB-231 [2] turned out to be 65%; in the test with Hs-578T [3], 38.7%; with MCF7 [5], 57.3%.

Take `COc1cc(OC)c(C2N=C3Oc4c(cccc4OC)C=C3C(=O)N2)c(OC)c1` (stereo not given): the viability at 10 µM in the test with MDA-MB-231 [1] is 83.6%; in the test on Hs-578T [4], 94.8%; with MCF7 [6], 99.9%. Further, the viability at 30 µM was determined as 77.4% in the test with MDA-MB-231 [2], 86% in the test on Hs-578T [3] and 91.8% in the test on MCF7 [5].

Turning to `CC(C)(C)c1cc(-c2nc3c(c(=O)[nH]2)Cc2ccccc2O3)cc(C(C)(C)C)c1O`, the viability at 10 µM with MDA-MB-231 [1] turned out to be 95.1%; in the test with Hs-578T [4] it was 80.2%; in the test on MCF7 [6] it was 97.7%. Moreover, the viability at 30 µM in the test on MDA-MB-231 [2] came to 95.2%; with Hs-578T [3] it was 81%; in the test with MCF7 [5] it was 94.7%.

For `CCC(CC)C1N=C2Oc3c(cccc3OC)C=C2C(=O)N1` (stereo not given), the viability at 10 µM in the test on MDA-MB-231 [1] stood at 85.8%; in the test on Hs-578T [4] it was 98.4%; with MCF7 [6], 85.9%. Also, the viability at 30 µM in the test on MDA-MB-231 [2] came out at 64.1%; in the test with Hs-578T [3], 83%; in the test on MCF7 [5], 84.8%.

`COc1ccc2c(c1)Cc1c(nc(-c3cc(OC)ccc3OC)[nH]c1=O)O2`: the figures for the viability at 10 µM in the test with MDA-MB-231 [1], in the test on Hs-578T [4] and in the test with MCF7 [6] were 60.9%, 95.9% and 63.7%, respectively. Moreover, the figures for the viability at 30 µM with MDA-MB-231 [2], in the test with Hs-578T [3] and in the test on MCF7 [5] were 49.7%, 96.5% and 57.8%, respectively.

As to `COc1cccc2c1Oc1nc(-c3ccccc3)[nH]c(=O)c1C2`, the viability at 10 µM in the test with MDA-MB-231 [1] turned out to be 91.8%; in the test on Hs-578T [4], 91.1%; in the test on MCF7 [6], 91.2%. The viability at 30 µM in the test on MDA-MB-231 [2] is 89.2%; in the test on Hs-578T [3] it was 75.8%; in the test with MCF7 [5], 88.5%.
